Measurements published in patent US9598446B2, “Amino compounds for treatment of complement mediated disorders” (priority 2014, dated 2017).

Each molecule was assayed against Human factor D (Homo sapiens (Human), UniProt P00746) (assay: Human Factor D Assay). Conditions: not given.
Type: biochemical

Chain of Human factor D (P00746 26-253): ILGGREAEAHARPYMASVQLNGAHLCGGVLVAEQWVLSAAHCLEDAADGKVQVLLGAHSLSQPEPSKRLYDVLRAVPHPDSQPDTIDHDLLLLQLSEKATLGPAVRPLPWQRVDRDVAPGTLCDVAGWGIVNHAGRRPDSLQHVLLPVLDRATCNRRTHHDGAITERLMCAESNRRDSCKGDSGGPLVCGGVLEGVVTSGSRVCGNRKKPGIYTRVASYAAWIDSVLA

Row | Compound | IC50
1 | CC(=O)c1cn(CC(=O)N2C[C@H](F)C[C@H]2C(=O)Nc2cccc(Cl)c2-n2cncn2)c2ccc(Nc3cncnc3)cc12 [Compound 37, (2S,4R)-1-(2-(3-acetyl-5-(pyrimidin-5-ylamino)-1H-indol-1-yl)acetyl)-N-(3-chloro-2-(1H-1,2,4-triazol-1-yl)phenyl)-4-fluoropyrrolidine-2-carboxamide] | 1000 to 10000 nM
2 | CC(=O)c1cn(CC(=O)N2C[C@H](F)C[C@H]2C(=O)Nc2ccc(CN)cc2)c2ccc(Nc3cncnc3)cc12 [Compound 53, (2S,4R)-1-(2-(3-acetyl-5-(pyrimidin-5-ylamino)-1H-indol-1-yl)acetyl)-N-(4-(aminomethyl)phenyl)-4-fluoropyrrolidine-2-carboxamide] | 1000 to 10000 nM
3 | CC(=O)c1cn(CC(=O)N2C[C@H](F)C[C@H]2C(=O)NCc2cccc(Cl)c2F)c2cc(N(CC(=O)N3C[C@H](F)C[C@H]3C(=O)NCc3cccc(Cl)c3F)S(C)(=O)=O)ccc12 [Compound 1, (2S,4R)-1-(2-(N-(3-acetyl-1-(2-((2S,4R)-2-(3-chloro-2-fluorobenzyl-carbamoyl)-4-fluoropyrrolidin-1-yl)-2-oxoethyl)-1H-indol-6-yl)methylsulfonamido)acetyl)-N-(3-chloro-2-fluorobenzyl)-4-fluoropyrrolidine-2-carboxamide] | 1000 to 10000 nM
4 | CC(=O)c1cn(CC(=O)N2C[C@H](F)C[C@H]2C(=O)Nc2nc(-c3c(C)nc4sccn34)cs2)c2ccc(Nc3cncnc3)cc12 [Compound 49, (2S,4R)-1-(2-(3-acetyl-5-(pyrimidin-5-ylamino)-1H-indol-1-yl)acetyl)-4-fluoro-N-(4-(6-methylimidazo[2,1-b]thiazol-5-yl)thiazol-2-yl)pyrrolidine-2-carboxamide] | 1000 to 10000 nM
5 | CC(=O)c1cn(CC(=O)N2C[C@H](F)C[C@H]2C(=O)Nc2c[nH]nc2-c2ccc(Cl)cc2Cl)c2ccc(Nc3cncnc3)cc12 [Compound 55, (2S,4R)-1-(2-(3-acetyl-5-(pyrimidin-5-ylamino)-1H-indol-1-yl)acetyl)-N-(3-(2,4-dichlorophenyl)-1H-pyrazol-4-yl)-4-fluoropyrrolidine-2-carboxamide] | 1000 to 10000 nM

Same assay, conditions: human factor D 80 nM, substrate Z-L-Lys-SBz1 and DTNB 100 μM each, pH 7.5; read-out: IC50

Row | Compound | IC50
6 | CC(=O)c1cn(CC(=O)N2C[C@H](F)C[C@H]2C(=O)NC2CCCc3nc(-c4ccc(F)cc4)sc32)c2ccc(Nc3cncnc3)cc12 (stereo partly drawn) [Compound 28, (2S,4R)-1-(2-(3-acetyl-5-(pyrimidin-5-ylamino)-1H-indol-1-yl)acetyl)-4-fluoro-N-(2-(4-fluorophenyl)-4,5,6,7-tetrahydrobenzo[d]thiazol-7-yl)pyrrolidine-2-carboxamide] | > 10000 nM
7 | CC(=O)c1cn(CC(=O)N2C[C@H](F)C[C@H]2C(=O)Nc2cncc(Br)n2)c2ccc(Nc3cncnc3)cc12 [Compound 47, (2S,4R)-1-(2-(3-acetyl-5-(pyrimidin-5-ylamino)-1H-indol-1-yl)acetyl)-N-(6-bromopyrazin-2-yl)-4-fluoropyrrolidine-2-carboxamide] | < 1000 nM
8 | NC(=O)c1nn(CC(=O)N2C[C@H](F)C[C@H]2C(=O)Nc2cccc(Cl)n2)c2ccc(Nc3cccnn3)cc12 [Compound 11, 1-(2-((2S,4R)-2-(6-chloropyridin-2-ylcarbamoyl)-4-fluoropyrrolidin-1-yl)-2-oxoethyl)-5-(pyridazin-3-ylamino)-1H-indazole-3-carboxamide] | < 1000 nM
9 | CC(=O)c1cn(CC(=O)N2C[C@H](F)C[C@H]2C(=O)Nc2ccc(OCc3ccccc3)cn2)c2ccc(Nc3cncnc3)cc12 [Compound 45, (2S,4R)-1-(2-(3-acetyl-5-(pyrimidin-5-ylamino)-1H-indol-1-yl)acetyl)-N-(5-(benzyloxy)pyridin-2-yl)-4-fluoropyrrolidine-2-carboxamide] | < 1000 nM
10 | CC(=O)c1cn(CC(=O)N2C[C@H](F)C[C@H]2C(=O)Nc2cncc(Br)c2)c2ccc(Nc3cncnc3)cc12 [Compound 21, (2S,4R)-1-(2-(3-acetyl-5-(pyrimidin-5-ylamino)-1H-indol-1-yl)acetyl)-N-(5-bromopyridin-3-yl)-4-fluoropyrrolidine-2-carboxamide] | < 1000 nM
11 | CC(=O)c1cn(CC(=O)N2C[C@H](F)C[C@H]2C(=O)Nc2cccc(Br)n2)c2ccc(Nc3cncnc3)cc12 [Compound 4, (2S,4R)-1-(2-(3-acetyl-5-(pyrimidin-5-ylamino)-1H-indol-1-yl)acetyl)-N-(6-bromopyridin-2-yl)-4-fluoropyrrolidine-2-carboxamide] | < 1000 nM
12 | CC(=O)c1cn(CC(=O)N2C[C@H](F)C[C@H]2C(=O)Nc2ncc(Br)cn2)c2ccc(Nc3cncnc3)cc12 [Compound 44, (2S,4R)-1-(2-(3-acetyl-5-(pyrimidin-5-ylamino)-1H-indol-1-yl)acetyl)-N-(5-bromopyrimidin-2-yl)-4-fluoropyrrolidine-2-carboxamide] | < 1000 nM
13 | CC(=O)c1cn(CC(=O)N2C[C@H](F)C[C@H]2C(=O)Nc2nc(-c3cccc(Cl)c3)ns2)c2ccc(Nc3cncnc3)cc12 [Compound 60, (2S,4R)-1-(2-(3-acetyl-5-(pyrimidin-5-ylamino)-1H-indol-1-yl)acetyl)-N-(3-(3-chlorophenyl)-1,2,4-thiadiazol-5-yl)-4-fluoropyrrolidine-2-carboxamide] | > 10000 nM
14 | CC(=O)c1cn(CC(=O)N2C[C@H](F)C[C@H]2C(=O)Nc2ccc(F)c(-c3nnc4n3CCCCC4)c2)c2ccc(Nc3cncnc3)cc12 [Compound 26, (2S,4R)-1-(2-(3-acetyl-5-(pyrimidin-5-ylamino)-1H-indol-1-yl)acetyl)-4-fluoro-N-(4-fluoro-3-(6,7,8,9-tetrahydro-5H-[1,2,4]triazolo[4,3-a]azepin-3-yl)phenyl)pyrrolidine-2-carboxamide] | < 1000 nM
15 | CC(=O)c1cn(CC(=O)N2C[C@H](F)C[C@H]2C(=O)Nc2cccc(-c3ccccc3Cl)c2F)c2ccc(Nc3cncnc3)cc12 [Compound 3, (2S,4R)-1-(2-(3-acetyl-5-(pyrimidin-5-ylamino)-1H-indol-1-yl)acetyl)-N-(2′-chloro-2-fluorobiphenyl-3-yl)-4-fluoropyrrolidine-2-carboxamide] | < 1000 nM
16 | CC(=O)c1cn(CC(=O)N2C[C@H](F)C[C@H]2C(=O)Nc2cncc(Cl)c2)c2ccc(Nc3cncnc3)cc12 [Compound 22, (2S,4R)-1-(2-(3-acetyl-5-(pyrimidin-5-ylamino)-1H-indol-1-yl)acetyl)-N-(5-chloropyridin-3-yl)-4-fluoropyrrolidine-2-carboxamide] | < 1000 nM
17 | NC(=O)c1nn(CC(=O)N2C[C@H](F)C[C@H]2C(=O)Nc2cccc(-c3ccccc3Cl)c2F)c2ccc(Nc3cncnc3)cc12 [Compound 10, 1-(2-((2S,4R)-2-(2′-chloro-2-fluorobiphenyl-3-ylcarbamoyl)-4-fluoropyrrolidin-1-yl)-2-oxoethyl)-5-(pyrimidin-5-ylamino)-1H-indazole-3-carboxamide] | < 1000 nM
18 | NC(=O)c1nn(CC(=O)N2C[C@H](F)C[C@H]2C(=O)Nc2cccc(-c3ccccc3Cl)c2F)c2ccc(Nc3cccnn3)cc12 [Compound 9, 1-(2-((2S,4R)-2-(2′-chloro-2-fluorobiphenyl-3-ylcarbamoyl)-4-fluoropyrrolidin-1-yl)-2-oxoethyl)-5-(pyridazin-3-ylamino)-1H-indazole-3-carboxamide] | < 1000 nM
19 | CC(=O)c1cn(CC(=O)N2C[C@H](F)C[C@H]2C(=O)NCc2cccc(Cl)c2)c2ccc(Nc3cncnc3)cc12 [Compound 19, (2S,4R)-1-(2-(3-acetyl-5-(pyrimidin-5-ylamino)-1H-indol-1-yl)acetyl)-N-(3-chlorobenzyl)-4-fluoropyrrolidine-2-carboxamide] | < 1000 nM
20 | CC(=O)c1cn(CC(=O)N2C[C@H](F)C[C@H]2C(=O)Nc2cc(C)nc3nc(C(F)(F)F)nn23)c2ccc(Nc3cncnc3)cc12 [Compound 41, (2S,4R)-1-(2-(3-acetyl-5-(pyrimidin-5-ylamino)-1H-indol-1-yl)acetyl)-4-fluoro-N-(5-methyl-2-(trifluoromethyl)-[1,2,4]triazolo[1,5-a]pyrimidin-7-yl)pyrrolidine-2-carboxamide] | > 10000 nM
21 | CC(=O)c1cn(CC(=O)N2C[C@H](F)C[C@H]2C(=O)N[C@H](CO)c2cccc(Cl)c2F)c2ccc(Nc3cncnc3)cc12 [Compound 7, (2S,4R)-1-(2-(3-acetyl-5-(pyrimidin-5-ylamino)-1H-indol-1-yl)acetyl)-N-((S)-1-(3-chloro-2-fluorophenyl)-2-hydroxyethyl)-4-fluoropyrrolidine-2-carboxamide] | < 1000 nM
22 | CC(=O)c1cn(CC(=O)N2C[C@H](F)C[C@H]2C(=O)Nc2nc(-c3ccccc3Cl)ns2)c2ccc(Nc3cncnc3)cc12 [Compound 29, (2S,4R)-1-(2-(3-acetyl-5-(pyrimidin-5-ylamino)-1H-indol-1-yl)acetyl)-N-(3-(2-chlorophenyl)-1,2,4-thiadiazol-5-yl)-4-fluoropyrrolidine-2-carboxamide] | < 1000 nM
23 | CC(=O)c1cn(CC(=O)N2C[C@H](F)C[C@H]2C(=O)Nc2cncc(Cl)n2)c2ccc(Nc3cncnc3)cc12 [Compound 33, (2S,4R)-1-(2-(3-acetyl-5-(pyrimidin-5-ylamino)-1H-indol-1-yl)acetyl)-N-(6-chloropyrazin-2-yl)-4-fluoropyrrolidine-2-carboxamide] | < 1000 nM
24 | CC(=O)c1cn(CC(=O)N2C[C@H](F)C[C@H]2C(=O)Nc2nc(-c3ccc4c(c3)CCCC4)cs2)c2ccc(Nc3cncnc3)cc12 [Compound 50, (2S,4R)-1-(2-(3-acetyl-5-(pyrimidin-5-ylamino)-1H-indol-1-yl)acetyl)-4-fluoro-N-(4-(5,6,7,8-tetrahydronaphthalen-2-yl)thiazol-2-yl)pyrrolidine-2-carboxamide] | > 10000 nM
25 | CC(=O)c1cn(CC(=O)N2C[C@H](F)C[C@H]2C(=O)Nc2cccc(Cl)n2)c2ccc(Nc3cncnc3)cc12 [Compound 6, (2S,4R)-1-(2-(3-acetyl-5-(pyrimidin-5-ylamino)-1H-indol-1-yl)acetyl)-N-(6-chloropyridin-2-yl)-4-fluoropyrrolidine-2-carboxamide] | < 1000 nM
26 | CC(=O)c1cn(CC(=O)N2C[C@H](F)C[C@H]2C(=O)Nc2cc(C)nn2-c2ccccc2F)c2ccc(Nc3cncnc3)cc12 [Compound 57, (2S,4R)-1-(2-(3-acetyl-5-(pyrimidin-5-ylamino)-1H-indol-1-yl)acetyl)-4-fluoro-N-(1-(2-fluorophenyl)-3-methyl-1H-pyrazol-5-yl)pyrrolidine-2-carboxamide] | < 1000 nM
